Results on 2 compounds are retold here after patent publication US8394969B2, “Cyclic benzimidazole derivatives useful as anti-diabetic agents” (Merck Sharp & Dohme Corp., priority 2008, dated 2013).

Some results are limits rather than exact numbers.

One assay deals with ob/ob and db/db mice. To be noted: following 8 weeks of administration; cited from earlier work.
The target in assay [1] is recombinant human AMPK complex 1 (containing α1β1γ1) (Homo sapiens, UniProt Q13131+Q9Y478). Kind of assay: […] (in vitro AMPK activation assay). It is filed as biochemical. To be noted: recombinant human AMPK complex 1 (α1β1γ1); basal activity subtracted; read-out: % Maximum AMP Activation of human AMPK Complex 1.
Chain of recombinant human AMPK complex 1 (containing α1β1γ1) (Q13131 whole entry): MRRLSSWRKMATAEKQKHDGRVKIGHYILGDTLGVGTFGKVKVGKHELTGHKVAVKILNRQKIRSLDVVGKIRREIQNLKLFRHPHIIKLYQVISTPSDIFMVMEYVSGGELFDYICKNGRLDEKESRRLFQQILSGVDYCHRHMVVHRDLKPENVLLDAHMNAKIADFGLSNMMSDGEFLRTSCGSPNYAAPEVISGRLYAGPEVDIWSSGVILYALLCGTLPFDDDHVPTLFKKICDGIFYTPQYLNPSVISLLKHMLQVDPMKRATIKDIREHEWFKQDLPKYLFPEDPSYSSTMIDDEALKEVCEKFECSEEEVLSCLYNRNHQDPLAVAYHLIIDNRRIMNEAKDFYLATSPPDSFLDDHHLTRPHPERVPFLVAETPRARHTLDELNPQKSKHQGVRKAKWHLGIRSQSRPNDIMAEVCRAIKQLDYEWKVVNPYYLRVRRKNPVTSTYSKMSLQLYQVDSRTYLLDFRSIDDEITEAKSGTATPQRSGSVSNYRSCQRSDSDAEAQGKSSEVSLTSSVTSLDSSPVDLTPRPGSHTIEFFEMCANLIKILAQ
Chain of recombinant human AMPK complex 1 (containing α1β1γ1) (Q9Y478 whole entry): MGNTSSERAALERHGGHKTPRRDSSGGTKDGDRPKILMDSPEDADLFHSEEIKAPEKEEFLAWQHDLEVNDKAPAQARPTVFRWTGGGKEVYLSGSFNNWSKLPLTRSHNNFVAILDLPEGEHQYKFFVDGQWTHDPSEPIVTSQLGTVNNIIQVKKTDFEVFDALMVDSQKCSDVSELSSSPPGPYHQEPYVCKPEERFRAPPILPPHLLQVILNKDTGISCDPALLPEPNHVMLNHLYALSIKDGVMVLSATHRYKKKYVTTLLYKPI
Chain of recombinant human AMPK complex 1 (containing α1β1γ1) (P54619 whole entry partner): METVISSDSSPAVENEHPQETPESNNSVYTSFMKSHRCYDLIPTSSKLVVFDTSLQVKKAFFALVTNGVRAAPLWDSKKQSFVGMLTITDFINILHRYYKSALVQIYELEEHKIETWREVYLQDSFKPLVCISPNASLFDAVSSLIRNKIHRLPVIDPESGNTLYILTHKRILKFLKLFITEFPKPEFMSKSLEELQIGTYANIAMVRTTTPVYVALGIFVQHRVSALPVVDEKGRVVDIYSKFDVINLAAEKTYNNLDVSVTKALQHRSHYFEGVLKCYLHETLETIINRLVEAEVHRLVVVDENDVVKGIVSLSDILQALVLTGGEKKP

Consider `NC(=O)c1ncn([C@@H]2O[C@H](CO)[C@@H](O)[C@H]2O)c1N` [AICAR], for which the blood glucose reduction with ob/ob and db/db mice was 35%.
As for `O=C(O)c1ccc(Oc2nc3cc(-c4ccc(-c5ccccc5)cc4)c(Cl)cc3[nH]2)cc1C(=O)O` [Example 36, 4-(5-Biphenyl-4-yl-6-chloro-1H-benzoimidazol-2-yloxy)-phthalic acid], the Emax in assay [1] was above 80%.
